Measurements published in ChEMBL document CHEMBL5154926, “Discovery of a Novel Series of Imipridone Compounds as Homo sapiens Caseinolytic Protease P Agonists with Potent Antitumor Activities In Vitro and In Vivo” (J Med Chem, 2022).
pIC50: −log10 of the molar value. In brackets after ≈: the same amount, converted by molar mass. Activity calls are given as the source filed them. No cut-off for these calls is given here.

Assays:
[1] = system: HCT-116; assay: Induction of apoptosis in human HCT-116 cells assessed as viable cells at 12.5 nM incubated for 48 hrs by Annexin V/FITC staining based flow cytometric method (reference value: 97.66%); format: functional; conditions: read-out: Activity
[2] = system: HCT-116; assay: Induction of apoptosis in human HCT-116 cells assessed as necrotic cells at 50 nM incubated for 48 hrs by Annexin V/FITC staining based flow cytometric method (reference value: 0.05%); format: functional
[3] = Stability in human liver microsomes assessed as half life at 1.5 uM measured upto 90 mins in presence of NADPH by LC/MS analysis; format: ADME, Microsome; conditions: human liver microsomes
[4] = system: HCT-116; assay: Induction of ROS generation in human HCT-116 cells at 25 nM measured after 24 hrs by DHE staining based fluorescence assay (reference value: […] %); format: functional
[5] = system: HCT-116; assay: Induction of apoptosis in human HCT-116 cells assessed as late apoptotic cells at 12.5 nM incubated for 48 hrs by Annexin V/FITC staining based flow cytometric method (reference value: 1.57%); format: functional
[6] = system: HCT-116; assay: Induction of apoptosis in human HCT-116 cells assessed as viable cells at 50 nM incubated for 48 hrs by Annexin V/FITC staining based flow cytometric method (reference value: 97.66%); format: functional; conditions: read-out: Activity
[7] = 1-octanol/water partition coefficient, log P of the compound agitated for 4 hrs measured by shake flask assay based HPLC analysis; format: physicochemical
[8] = system: HCT-116; assay: Induction of apoptosis in human HCT-116 cells assessed as early apoptotic cells at 25 nM incubated for 48 hrs by Annexin V/FITC staining based flow cytometric method (reference value: […]); format: functional
[9] = system: HCT-116; assay: Induction of apoptosis in human HCT-116 cells assessed as necrotic cells at 25 nM incubated for 48 hrs by Annexin V/FITC staining based flow cytometric method (reference value: 0.05%); format: functional
[10] = system: HCT-116; assay: Induction of ROS generation in human HCT-116 cells at 50 nM measured after 24 hrs by DHE staining based fluorescence assay (reference value: […] %); format: functional
[11] = Aqueous solubility of the compound agitated for 24 hrs by HPLC analysis; format: physicochemical; conditions: buffer
[12] = system: HCT-116; assay: Induction of cell cycle arrest in human HCT-116 cells assessed as accumulation of cells at G0/G1 phase at 50 nM incubated for 48 hrs propidium iodide based flow cytometric analysis (reference value: 26 %); format: functional
[13] = system: HCT-116; assay: Induction of apoptosis in human HCT-116 cells assessed as late apoptotic cells at 50 nM incubated for 48 hrs by Annexin V/FITC staining based flow cytometric method (reference value: 1.57%); format: functional
[14] = system: HCT-116; assay: Induction of apoptosis in human HCT-116 cells assessed as early apoptotic cells at 50 nM incubated for 48 hrs by Annexin V/FITC staining based flow cytometric method (reference value: […]); format: functional
[15] = biological target: Voltage-gated inwardly rectifying potassium channel KCNH2 (Homo sapiens, UniProt Q12809); assay: Inhibition of hERG expressed in HEK293 cells by automated patch clamp assay; format: toxicity, cell-based
[16] = system: HCT-116; assay: Induction of ROS generation in human HCT-116 cells at 12.5 nM measured after 24 hrs by DHE staining based fluorescence assay (reference value: […] %); format: functional
[17] = system: HCT-116; assay: Induction of cell cycle arrest in human HCT-116 cells assessed as accumulation of cells at G0/G1 phase at 12.5 nM incubated for 48 hrs propidium iodide based flow cytometric analysis (reference value: 26 %); format: functional
[18] = Stability in human liver microsomes assessed as intrinsic clearance at 1.5 uM measured upto 90 mins in presence of NADPH by LC/MS analysis; format: ADME, Microsome; conditions: read-out: CLH
[19] = system: HCT-116; assay: Induction of apoptosis in human HCT-116 cells assessed as necrotic cells at 12.5 nM incubated for 48 hrs by Annexin V/FITC staining based flow cytometric method (reference value: 0.05%); format: functional
[20] = Stability in rat liver microsomes assessed as half life at 1.5 uM measured upto 90 mins in presence of NADPH by LC/MS analysis; format: ADME, Microsome; conditions: 1.5 h
[21] = system: HCT-116; assay: Induction of apoptosis in human HCT-116 cells assessed as viable cells at 25 nM incubated for 48 hrs by Annexin V/FITC staining based flow cytometric method (reference value: 97.66%); format: functional; conditions: read-out: Activity
[22] = system: HCT-116; assay: Induction of apoptosis in human HCT-116 cells assessed as late apoptotic cells at 25 nM incubated for 48 hrs by Annexin V/FITC staining based flow cytometric method (reference value: 1.57%); format: functional
[23] = system: HCT-116; assay: Induction of apoptosis in human HCT-116 cells assessed as early apoptotic cells at 12.5 nM incubated for 48 hrs by Annexin V/FITC staining based flow cytometric method (reference value: […]); format: functional
[24] = system: HCT-116; conditions: Homo sapiens, dose 12.5-50 nM, time 14.0 day
[25] = organism: Homo sapiens; conditions: filed as agonist
Description: Binding affinity to human CLpP Y138F/Q107A double mutant assessed as change in entropy by ITC method

[26] = biological target: T1, ATP-dependent Clp protease proteolytic subunit, mitochondrial (Homo sapiens, UniProt Q16740); conditions: filed as agonist
Description: Binding affinity to human CLpP assessed as change in enthalpy by ITC method

[27] = organism: Homo sapiens; conditions: filed as agonist; remark: listed apart in the source
Description: Binding affinity to human CLpP Y138F/Q107A double mutant assessed as change in enthalpy by ITC method

[28] = biological target: T1, ATP-dependent Clp protease proteolytic subunit, mitochondrial; conditions: filed as agonist; remark: listed apart in the source
Description: Binding affinity to human CLpP assessed as change in entropy by ITC method

[29] = biological target: T1, ATP-dependent Clp protease proteolytic subunit, mitochondrial; conditions: filed as agonist, dose 100.0 µM, time 30.0 min

T1 sequence (Q16740 whole entry): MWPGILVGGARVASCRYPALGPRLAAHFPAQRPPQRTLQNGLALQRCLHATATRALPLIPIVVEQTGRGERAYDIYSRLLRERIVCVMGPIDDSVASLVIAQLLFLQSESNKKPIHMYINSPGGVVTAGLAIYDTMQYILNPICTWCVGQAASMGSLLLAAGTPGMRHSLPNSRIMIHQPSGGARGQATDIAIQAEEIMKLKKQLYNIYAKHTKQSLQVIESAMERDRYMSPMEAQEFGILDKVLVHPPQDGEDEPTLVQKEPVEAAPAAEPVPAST
Voltage-gated inwardly rectifying potassium channel KCNH2, sequence (Q12809 whole entry): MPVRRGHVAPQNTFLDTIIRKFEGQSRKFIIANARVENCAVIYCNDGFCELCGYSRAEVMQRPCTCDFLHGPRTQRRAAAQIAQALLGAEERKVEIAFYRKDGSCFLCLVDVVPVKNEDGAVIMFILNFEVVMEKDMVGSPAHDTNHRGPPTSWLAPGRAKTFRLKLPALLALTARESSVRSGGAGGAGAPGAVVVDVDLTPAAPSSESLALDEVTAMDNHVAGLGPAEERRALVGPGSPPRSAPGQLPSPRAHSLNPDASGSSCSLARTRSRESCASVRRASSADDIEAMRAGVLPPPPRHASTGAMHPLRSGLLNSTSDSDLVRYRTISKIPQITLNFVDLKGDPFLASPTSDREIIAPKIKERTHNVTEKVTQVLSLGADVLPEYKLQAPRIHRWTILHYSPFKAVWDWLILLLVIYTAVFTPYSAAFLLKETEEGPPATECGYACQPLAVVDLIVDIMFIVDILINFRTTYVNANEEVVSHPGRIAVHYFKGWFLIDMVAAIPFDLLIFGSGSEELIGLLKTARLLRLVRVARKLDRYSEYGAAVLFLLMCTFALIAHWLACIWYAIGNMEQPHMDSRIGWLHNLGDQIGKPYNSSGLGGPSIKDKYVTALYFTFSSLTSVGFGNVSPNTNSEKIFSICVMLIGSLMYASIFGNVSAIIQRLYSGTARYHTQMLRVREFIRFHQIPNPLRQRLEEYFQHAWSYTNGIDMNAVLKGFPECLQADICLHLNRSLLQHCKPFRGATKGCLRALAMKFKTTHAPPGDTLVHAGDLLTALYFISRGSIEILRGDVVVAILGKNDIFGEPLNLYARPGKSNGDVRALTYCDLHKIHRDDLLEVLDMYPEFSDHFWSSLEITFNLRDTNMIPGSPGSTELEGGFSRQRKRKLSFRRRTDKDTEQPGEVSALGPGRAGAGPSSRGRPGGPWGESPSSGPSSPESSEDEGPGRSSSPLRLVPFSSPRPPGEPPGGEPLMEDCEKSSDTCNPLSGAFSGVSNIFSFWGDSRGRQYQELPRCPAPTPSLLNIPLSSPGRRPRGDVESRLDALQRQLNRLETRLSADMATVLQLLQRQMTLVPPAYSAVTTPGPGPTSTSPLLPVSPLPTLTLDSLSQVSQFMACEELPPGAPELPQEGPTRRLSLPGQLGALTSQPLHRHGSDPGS

Q: What does the source list for `O=c1nc2n(c3c1CN(Cc1ccccc1)CC3)CCN2Cc1ccc(F)c(Br)c1` [listing 1 of 2 here]?
A: viability at 0.0125 µM [1]: 95.8%; Activity [2]: 0.16%; half-life at 1.5 µM [3]: 13 min; Activity [4]: 97.9%; Activity [5]: 2.82%; viability at 0.05 µM [6]: 91.6%; logP at 4 h [7]: 3.21; Activity [8]: 2.14%; Activity [9]: 0.12%; Activity [10]: 99.4%; solubility at 24 h [11]: 100 µM (≈ 47.1 µg/mL); Activity [12]: 55%; Activity [13]: 5.12%; Activity [14]: 3.16%; pIC50 [15]: 5.31; Activity [16]: 99.46%; Activity [17]: 40%; CLint scaled at 1.5 µM [18]: 134 mL/min/kg; Activity [19]: 0.07%; t1/2 [20]: 16.1 min; viability at […] [21]: 94.7%; Activity [22]: 3%; Activity [23]: 1.27%

Q: With `O=c1nc2n(c3c1CN(Cc1ccccc1)CC3)CCN2Cc1ccc(F)c(Br)c1` [listing 2 of 2 here] as the compound, how does the inhibition [24] read?
A: Active

Q: And the deltaS [25]?
A: 54.3 J/mol.K

Q: What about the deltaH [26] of the same compound?
A: -14.9 kcal/mol

Q: And the deltaH [27]?
A: -2.73 kcal/mol

Q: And the deltaS [28]?
A: -77.4 J/mol.K

Q: What about the ΔTm [29] of the same compound?
A: 20.9 °C
